Source: paper PMC8958504 (Journal of Medicinal Chemistry, 2022)

What was measured:
[1] = biological target: T1, hMAO-B (Homo sapiens, UniProt P27338); assay: biochemical; settings: read-out: hMAO-B (IC50); recombinant hMAO-B, p-tyramine substrate
T1 sequence (P27338 1-520): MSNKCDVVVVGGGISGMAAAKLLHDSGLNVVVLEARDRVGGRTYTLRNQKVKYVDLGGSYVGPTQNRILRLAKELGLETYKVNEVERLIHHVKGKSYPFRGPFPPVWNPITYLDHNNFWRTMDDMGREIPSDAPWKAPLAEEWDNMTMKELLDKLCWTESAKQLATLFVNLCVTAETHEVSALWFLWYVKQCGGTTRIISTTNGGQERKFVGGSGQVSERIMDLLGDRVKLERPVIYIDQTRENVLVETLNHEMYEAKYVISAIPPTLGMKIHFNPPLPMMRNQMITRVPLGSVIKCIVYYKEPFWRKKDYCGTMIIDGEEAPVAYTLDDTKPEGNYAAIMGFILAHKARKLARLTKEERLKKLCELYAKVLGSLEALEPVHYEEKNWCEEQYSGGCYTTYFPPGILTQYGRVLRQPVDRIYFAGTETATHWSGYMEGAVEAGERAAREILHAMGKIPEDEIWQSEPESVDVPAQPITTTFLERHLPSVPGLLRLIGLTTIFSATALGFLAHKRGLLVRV
Method: (§1) The hMAO-A/B inhibition of all compounds was determined using the Amplex Red MAO assay kit.
(§2) Assays were performed following the general procedure previously described.[98] […] The specific fluorescence emission was calculated after subtracting the background activity, which was determined from wells containing all components except the hMAO isoforms, which were replaced with PBS.

[2] = biological target: T2, hMAO-A (Homo sapiens, UniProt P21397); assay: biochemical; settings: read-out: hMAO-A (IC50); recombinant hMAO-A, p-tyramine substrate
T2 sequence (P21397 1-527): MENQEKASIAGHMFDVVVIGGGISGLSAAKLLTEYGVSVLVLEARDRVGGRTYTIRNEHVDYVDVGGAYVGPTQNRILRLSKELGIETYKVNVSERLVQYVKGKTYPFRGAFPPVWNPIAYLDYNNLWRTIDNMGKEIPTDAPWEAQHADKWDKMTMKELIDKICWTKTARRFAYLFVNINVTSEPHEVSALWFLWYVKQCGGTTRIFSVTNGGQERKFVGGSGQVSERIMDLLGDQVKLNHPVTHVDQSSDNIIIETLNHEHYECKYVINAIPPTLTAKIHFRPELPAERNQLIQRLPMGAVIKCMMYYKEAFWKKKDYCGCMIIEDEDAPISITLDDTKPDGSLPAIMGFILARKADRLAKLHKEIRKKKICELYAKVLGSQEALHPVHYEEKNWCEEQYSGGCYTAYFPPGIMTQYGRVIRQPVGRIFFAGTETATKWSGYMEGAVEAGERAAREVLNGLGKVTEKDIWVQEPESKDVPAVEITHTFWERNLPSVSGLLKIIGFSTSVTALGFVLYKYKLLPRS
Method: as §1, §2

[3] = test system: rat primary cortical neurons; assay: Neuroprotection against OA-induced toxicity in rat primary cortical neuronal cultures (MTT); settings: compound 1 μM, OA 10 nM
[4] = test system: NRF2-ARE signaling pathway; assay: cells; format: cell-based; settings: concentration required to double luciferase activity, AREc32 cells, 24 h
Method: AREc32 cells were plated in 96-well white plates (2 × 10^4 cells/well). […]. The AREc32 cells constitutively express the plasmid pGL-8xARE that implements eight copies of the EpRE sequences, followed by the luciferase reporter gene. Therefore, NRF2 induction is related to the activation of EpRE sequences, expressing luciferase at the same extent as EpRE sequences are activated. The Luciferase Assay System (Promega E1500) was used according to the provider’s protocol, and luminescence was quantified in an Orion II microplate luminometer (Berthold, Germany). Fold induction of luciferase activity was normalized to basal conditions. Data are expressed as CD values, expressing the concentration required to double the luciferase activity. CD values were calculated from dose–response curves generated from the fold induction of control conditions versus inducer concentration and fitted by nonlinear regression and data interpolated to twofold induction concentration.[68]

[5] = biological target: T3, QR2 (Mesocricetus auratus, UniProt A0ABM2YAB8); assay: biochemical; settings: for inhibition at 10 µM: read-out: QR2 percentage of inhibition (in brackets)
T3 sequence (A0ABM2YAB8 1-231): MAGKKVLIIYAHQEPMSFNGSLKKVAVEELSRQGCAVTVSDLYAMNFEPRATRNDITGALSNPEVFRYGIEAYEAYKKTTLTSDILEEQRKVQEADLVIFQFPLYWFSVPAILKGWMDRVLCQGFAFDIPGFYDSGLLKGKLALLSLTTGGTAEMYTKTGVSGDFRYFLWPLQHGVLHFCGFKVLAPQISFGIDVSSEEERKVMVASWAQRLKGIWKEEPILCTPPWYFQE
Method: The QR2 experiments were performed in membrane homogenates of hamster brains (https://www.eurofins.fr, catalog ref. 0088). […] First, radioligand displacement was measured at a fixed compound concentration (10 μM) in each receptor.

[6] = Oxygen radical absorbance capacity (ORAC-FL) assay; settings: trolox = 1.0
Method: 2,2′-Azobis-(amidinopropane) dihydrochloride (AAPH), trolox, and fluorescein (FL) were purchased from Sigma-Aldrich. The reaction was carried out in a 75 mM phosphate buffer (pH 7.4), and the final reaction mixture was 200 μL. […] Antioxidant curves (fluorescence vs time) were first normalized to the curve of the blank corresponding to the same assay, and the area under the curve (AUC) of fluorescence decay was calculated. The net AUC corresponding to a sample was calculated by subtracting the AUC corresponding to the blank. Regression equations between the net AUC and antioxidant concentration were calculated for all the samples.

[7] = test system: human neuroblastoma SH-SY5Y cell line; assay: Cell viability per se in SH-SY5Y cells (MTT); settings: 100 μM, 24 h
Method: The cells from the 3rd to 12th passage were seeded at a density of 80,000 cells/well in 96-well plates and were used to assess the properties of our compounds.
After treatment, the SH-SY5Y cells, rat primary neuronal cultures, and hippocampal slices were incubated for 90 min with tetrazolium salt MTT (0.5 mg/mL) solution. This assay is based on the reduction of MTT (yellow salt) to purple insoluble formazan crystals by oxidoreductase enzymes from living cells. Thereafter, in order to solubilize the formazan crystal, the cells/slices were incubated for another 45 min in dimethyl sulfoxide (DMSO). […] The basal absorbance was set to 100%, and the results were normalized to basal conditions.

[8] = test system: adult mice NSCs; assay: Neurogenic studies in SGZ-derived neurospheres; format: cell-based, mouse; settings: 10 μM, data not shown
Method: Adult mice NSCs were isolated from SGZ of the dentate gyrus of the hippocampus and grown as free-floating neurospheres (NS).[72],[78] The neurogenic potential of each compound was determined using fluorescence confocal microscopy by quantifying the expression of two well-known neuronal markers: human β-III-tubulin (TuJ-1 clone) and microtubule-associated protein 2 (MAP-2). TuJ-1 is expressed in immature neurons, whereas the expression of MAP-2 indicates a consolidated mature neuronal stage.[79] Given that neurogenesis involves not only the proliferation of NSC but also the migration of newly generated cells, the greatest migration distance promoted by each compound was also measured (Figure 8).
Adult male C57BL/6 mice (3 months old) were used in order to determine neurogenesis activity. […] DAPI staining was used as a nuclear marker. Fluorescent representative images were acquired with a Nikon fluorescence microscope 90i coupled to a digital camera Qi. The microscope configuration was adjusted to produce the optimum signal-to-noise ratio. […] Quantification was undertaken using the image analySIS software (Soft Imaging System Corp., Münster, Germany) and normalized to total nuclei (DAPI-stained). The intensity of immunostaining of neurites from TuJ1-labeled cells and the number of MAP-2-positive cells were estimated from nine neurospheres per condition over three independent experiments. The outgrowth of the neurosphere cells was examined under a phase-contrast microscope and the farthest distance of cell migration was calculated from the edge of the sphere. At least 10 plated neurospheres per treatment were analyzed.

[9] = in vitro; format: in vitro ADME; settings: for Papp at 240 min, 100 μg mL^–1: PAMPA, pH 7.4, class from PAMPA-BBB Pe, read-out: CNS-permeability prediction; for PAMPA-BBB (Pe, 10^–6 cm s^–1): porcine brain lipid, PBS/EtOH (70:30), 240 min, 25 °C
[10] = biological target: T4, hMT2R (Homo sapiens, UniProt P49286); assay: hMT2R radioligand displacement in transfected CHO cells; settings: read-out: hMT2R binding affinity (Ki)
T4 construct: host or cells: Chinese hamster ovary cells
T4 sequence (P49286 1-362): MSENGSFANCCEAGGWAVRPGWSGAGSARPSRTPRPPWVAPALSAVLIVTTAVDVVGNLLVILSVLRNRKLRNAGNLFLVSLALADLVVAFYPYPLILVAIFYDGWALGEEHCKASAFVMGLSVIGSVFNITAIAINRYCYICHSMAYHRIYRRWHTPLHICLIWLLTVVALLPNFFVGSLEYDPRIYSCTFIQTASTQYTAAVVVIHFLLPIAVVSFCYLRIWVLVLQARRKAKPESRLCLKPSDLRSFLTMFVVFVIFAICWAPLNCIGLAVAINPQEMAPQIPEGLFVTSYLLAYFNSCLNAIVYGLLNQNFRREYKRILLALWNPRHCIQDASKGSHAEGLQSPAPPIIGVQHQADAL
Method: Assays in MT1R and MT2R were carried out using human receptors that were stably transfected in Chinese hamster ovary cells (https://www.eurofins.fr, catalog refs. 1538 and 1687). The QR2 experiments were performed in membrane homogenates of hamster brains (https://www.eurofins.fr, catalog ref. 0088). […] First, radioligand displacement was measured at a fixed compound concentration (10 μM) in each receptor. […] (E)-Resveratrol and melatonin were tested for comparative purposes.

[11] = test system: mouse hippocampal slices; settings: 1 μM, OA 1 μM, 6 h
Method: Once the treatment was ended, the cell viability was measured by the MTT method, cell death with the fluorescent probe PI (1 μg/mL), and ROS production with the fluorescent probe H2DCFDA (10 μL/mL).
Fluorescence from whole slices was measured as the mean intensity with an inverted Nikon eclipse T2000-U microscope (Nikon Instruments). […] The results were normalized to the basal condition, which was considered as 100%. Image analysis was performed using Fiji software.

| SMILES | IC50 [1] | IC50 [2] | neuroprotection against OA-induced toxicity [3] | NRF2 (CD, μM) [4] | IC50 [5] | inhibition at 10 µM [5] | ORAC (trolox equiv) [6] | reduction of cell viability [7] | capacity to differentiate NSCs [8] | Papp at 240 min, 100 μg mL^–1 [9] | PAMPA-BBB (Pe, 10^–6 cm s^–1) [9] | Ki [10] | cell viability (MTT) [11] |
| --- | --- | --- | --- | --- | --- | --- | --- | --- | --- | --- | --- | --- | --- |
| C#CCn1nc(/C=C/c2ccccc2)oc1=O [4a, 5-[(E)-2-Phenylethenyl]-3-(prop-2-yn-1-yl)-1,3,4-oxadiazol-2(3H)-one] | 9.87 ± 1.22 µM | > 50 µM | not able to significantly reduce neuronal death | 16.9 ± 0.4 µM | > 10 µM | 44% | <0.1 trolox equiv | around 30% | poor capacity to differentiate NSCs | > 4 ×10⁻⁶ cm/s | 13.6 ± 0.5 10^–6 cm s^–1 | – | – |
| C#CCNC(=O)/C=C/c1cccc(OC)c1 [6d, (2E)-3-(3-Methoxyphenyl)-N-(prop-2-yn-1-yl)prop-2-enamide] | > 50 µM | > 50 µM | – | – | ~10 µM | 76% | <0.1 trolox equiv | – | – | > 4 ×10⁻⁶ cm/s | 4.1 ± 0.2 10^–6 cm s^–1 | 1.4 µM | – |
| Oc1ccc(/C=C/c2cc(O)cc(O)c2)cc1 [(E)-resveratrol, reference compound] | 29.9 ± 1.8 µM | – | – | 21.0 ± 2.0 µM | – | – | – | over 50% | – | – | – | – | significantly increased the cell viability to almost basal levels, in a similar way to resveratrol treatment |
